ChEMBL document CHEMBL5291721, “A preclinical secondary pharmacology resource illuminates target-adverse drug reaction associations of marketed drugs” (Nat Commun, 2023)

Legend:
Adenosine receptor A2a = Adenosine receptor A2a (Homo sapiens, UniProt P29274)
[1] = molecular target: T1, Alpha-2A adrenergic receptor (Homo sapiens, UniProt P08913); type: functional, cell-based
T1 sequence (P08913 whole entry): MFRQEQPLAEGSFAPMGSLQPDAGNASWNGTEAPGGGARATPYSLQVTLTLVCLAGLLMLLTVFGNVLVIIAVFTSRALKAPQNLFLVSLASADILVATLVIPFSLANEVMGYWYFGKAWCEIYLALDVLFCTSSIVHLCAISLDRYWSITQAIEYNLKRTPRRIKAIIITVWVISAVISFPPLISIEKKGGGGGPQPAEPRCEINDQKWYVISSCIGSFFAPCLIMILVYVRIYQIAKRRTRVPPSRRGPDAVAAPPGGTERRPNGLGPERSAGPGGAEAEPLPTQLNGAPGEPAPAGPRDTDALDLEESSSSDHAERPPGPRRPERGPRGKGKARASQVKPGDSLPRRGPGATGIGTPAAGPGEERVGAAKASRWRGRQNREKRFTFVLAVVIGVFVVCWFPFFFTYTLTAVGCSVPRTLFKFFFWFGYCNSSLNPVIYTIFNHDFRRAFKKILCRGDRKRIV

[2] = molecular target: T2, Alpha-2B adrenergic receptor (Homo sapiens, UniProt P18089)
T2 sequence (P18089 whole entry): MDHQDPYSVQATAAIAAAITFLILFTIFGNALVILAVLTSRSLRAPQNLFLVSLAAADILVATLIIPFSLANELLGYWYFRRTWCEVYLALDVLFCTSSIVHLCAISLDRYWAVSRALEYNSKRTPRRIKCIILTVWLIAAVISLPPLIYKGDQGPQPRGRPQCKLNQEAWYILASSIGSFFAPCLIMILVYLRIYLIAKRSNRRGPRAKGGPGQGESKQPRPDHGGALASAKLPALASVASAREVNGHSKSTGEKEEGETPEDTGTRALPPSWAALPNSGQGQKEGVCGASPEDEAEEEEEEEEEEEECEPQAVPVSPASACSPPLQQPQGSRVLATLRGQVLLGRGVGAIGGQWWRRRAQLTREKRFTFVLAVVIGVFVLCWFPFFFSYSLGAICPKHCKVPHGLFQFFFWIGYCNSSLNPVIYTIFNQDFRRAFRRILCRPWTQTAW

Vasopressin V2 receptor = Vasopressin V2 receptor (Homo sapiens, UniProt P30518)
B2 bradykinin receptor = molecular target: T3, B2 bradykinin receptor (Homo sapiens, UniProt P30411)
T3 sequence (P30411 whole entry): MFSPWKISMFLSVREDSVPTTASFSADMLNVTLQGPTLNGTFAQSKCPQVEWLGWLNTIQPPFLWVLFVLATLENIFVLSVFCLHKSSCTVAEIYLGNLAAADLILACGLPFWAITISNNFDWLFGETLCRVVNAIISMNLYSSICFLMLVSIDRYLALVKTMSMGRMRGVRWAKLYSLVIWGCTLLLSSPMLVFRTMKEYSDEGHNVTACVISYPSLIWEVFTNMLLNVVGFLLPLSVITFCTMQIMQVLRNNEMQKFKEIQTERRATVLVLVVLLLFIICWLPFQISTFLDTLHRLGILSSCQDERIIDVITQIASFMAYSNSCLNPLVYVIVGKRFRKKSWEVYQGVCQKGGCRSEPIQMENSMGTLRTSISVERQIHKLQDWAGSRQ

Estrogen receptor = molecular target: T4, Estrogen receptor (Homo sapiens, UniProt P03372)
T4 sequence (P03372 whole entry): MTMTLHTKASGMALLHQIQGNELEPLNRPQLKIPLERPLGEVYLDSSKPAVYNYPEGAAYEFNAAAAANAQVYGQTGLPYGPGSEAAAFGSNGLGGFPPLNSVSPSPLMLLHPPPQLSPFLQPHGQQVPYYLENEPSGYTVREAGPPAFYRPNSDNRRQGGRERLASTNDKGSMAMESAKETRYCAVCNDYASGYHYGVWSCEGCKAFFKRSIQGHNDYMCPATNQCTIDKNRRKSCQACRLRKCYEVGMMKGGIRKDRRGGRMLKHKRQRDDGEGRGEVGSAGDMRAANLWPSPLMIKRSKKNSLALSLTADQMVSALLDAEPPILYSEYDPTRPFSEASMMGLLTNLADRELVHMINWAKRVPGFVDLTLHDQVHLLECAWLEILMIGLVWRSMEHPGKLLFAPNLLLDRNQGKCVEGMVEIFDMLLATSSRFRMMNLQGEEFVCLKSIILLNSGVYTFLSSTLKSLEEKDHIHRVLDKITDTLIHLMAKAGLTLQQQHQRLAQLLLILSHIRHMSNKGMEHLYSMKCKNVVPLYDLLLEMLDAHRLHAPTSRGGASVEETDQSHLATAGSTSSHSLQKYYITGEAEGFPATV

[3] = molecular target: Gamma-aminobutyric acid receptor subunit alpha-1 (Rattus norvegicus, UniProt P62813); type: functional
[4] = molecular target: 5-hydroxytryptamine receptor 2B (Homo sapiens, UniProt P41595); type: functional, cell-based
Motilin receptor = Motilin receptor (Homo sapiens, UniProt O43193)
[5] = molecular target: Kappa-type opioid receptor (Homo sapiens, UniProt P41145)
[6] = molecular target: Sodium-dependent serotonin transporter (Homo sapiens, UniProt P31645)
Mu-type opioid receptor = Mu-type opioid receptor (Homo sapiens, UniProt P35372)
D(3) dopamine receptor = D(3) dopamine receptor (Homo sapiens, UniProt P35462)
[7] = molecular target: T5, Gastrin/cholecystokinin type B receptor (Homo sapiens, UniProt P32239)
T5 sequence (P32239 whole entry): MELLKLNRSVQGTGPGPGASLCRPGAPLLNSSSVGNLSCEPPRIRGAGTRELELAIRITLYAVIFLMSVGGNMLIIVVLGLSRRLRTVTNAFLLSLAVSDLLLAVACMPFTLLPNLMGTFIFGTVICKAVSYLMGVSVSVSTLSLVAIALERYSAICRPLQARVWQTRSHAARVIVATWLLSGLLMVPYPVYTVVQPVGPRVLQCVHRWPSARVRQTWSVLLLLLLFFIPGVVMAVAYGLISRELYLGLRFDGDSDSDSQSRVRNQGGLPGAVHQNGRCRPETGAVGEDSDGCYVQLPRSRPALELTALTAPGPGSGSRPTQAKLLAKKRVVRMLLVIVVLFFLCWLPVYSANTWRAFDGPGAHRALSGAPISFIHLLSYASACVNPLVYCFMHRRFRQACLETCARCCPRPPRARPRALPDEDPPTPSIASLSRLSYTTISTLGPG

Cannabinoid receptor 1 = Cannabinoid receptor 1 (Homo sapiens, UniProt P21554); type: functional, cell-based
Note: assay procedure not described here.

Sequence of 5-hydroxytryptamine receptor 2B (P41595 whole entry): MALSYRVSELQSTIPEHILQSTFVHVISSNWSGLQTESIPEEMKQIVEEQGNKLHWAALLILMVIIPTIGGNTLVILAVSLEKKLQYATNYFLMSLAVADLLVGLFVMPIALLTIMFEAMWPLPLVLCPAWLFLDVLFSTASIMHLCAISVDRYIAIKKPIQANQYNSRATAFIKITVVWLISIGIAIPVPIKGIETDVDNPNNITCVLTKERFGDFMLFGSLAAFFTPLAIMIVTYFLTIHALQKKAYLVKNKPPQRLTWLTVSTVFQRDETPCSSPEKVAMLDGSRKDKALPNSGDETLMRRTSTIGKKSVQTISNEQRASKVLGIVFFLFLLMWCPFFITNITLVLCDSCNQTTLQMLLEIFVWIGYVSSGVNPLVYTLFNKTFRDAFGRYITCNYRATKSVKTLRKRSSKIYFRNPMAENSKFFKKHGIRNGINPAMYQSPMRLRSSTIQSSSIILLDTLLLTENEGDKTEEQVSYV
Sequence of Adenosine receptor A2a (P29274 whole entry): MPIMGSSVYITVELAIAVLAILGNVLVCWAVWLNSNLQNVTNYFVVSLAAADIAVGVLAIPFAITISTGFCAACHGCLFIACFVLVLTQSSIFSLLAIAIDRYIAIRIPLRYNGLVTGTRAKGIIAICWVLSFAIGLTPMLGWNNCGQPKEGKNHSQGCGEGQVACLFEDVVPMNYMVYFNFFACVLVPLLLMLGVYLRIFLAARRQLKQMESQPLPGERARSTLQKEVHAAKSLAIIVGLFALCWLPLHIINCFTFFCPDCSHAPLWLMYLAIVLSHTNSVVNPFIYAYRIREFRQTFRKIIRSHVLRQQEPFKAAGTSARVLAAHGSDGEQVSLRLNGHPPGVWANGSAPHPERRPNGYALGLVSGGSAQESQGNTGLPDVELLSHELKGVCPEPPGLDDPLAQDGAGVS
Sequence of Mu-type opioid receptor (P35372 whole entry): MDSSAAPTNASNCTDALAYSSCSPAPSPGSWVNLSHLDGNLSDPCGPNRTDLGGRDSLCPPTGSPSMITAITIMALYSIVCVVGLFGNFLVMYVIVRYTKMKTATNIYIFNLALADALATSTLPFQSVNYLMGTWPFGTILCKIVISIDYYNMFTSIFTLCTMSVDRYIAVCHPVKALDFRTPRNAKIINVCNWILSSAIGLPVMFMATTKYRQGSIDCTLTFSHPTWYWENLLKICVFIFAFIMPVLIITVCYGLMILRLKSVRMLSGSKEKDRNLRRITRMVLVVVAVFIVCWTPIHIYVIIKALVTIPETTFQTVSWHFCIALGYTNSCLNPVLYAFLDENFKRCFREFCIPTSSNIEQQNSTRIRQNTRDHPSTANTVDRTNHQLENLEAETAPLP
Sequence of Vasopressin V2 receptor (P30518 whole entry): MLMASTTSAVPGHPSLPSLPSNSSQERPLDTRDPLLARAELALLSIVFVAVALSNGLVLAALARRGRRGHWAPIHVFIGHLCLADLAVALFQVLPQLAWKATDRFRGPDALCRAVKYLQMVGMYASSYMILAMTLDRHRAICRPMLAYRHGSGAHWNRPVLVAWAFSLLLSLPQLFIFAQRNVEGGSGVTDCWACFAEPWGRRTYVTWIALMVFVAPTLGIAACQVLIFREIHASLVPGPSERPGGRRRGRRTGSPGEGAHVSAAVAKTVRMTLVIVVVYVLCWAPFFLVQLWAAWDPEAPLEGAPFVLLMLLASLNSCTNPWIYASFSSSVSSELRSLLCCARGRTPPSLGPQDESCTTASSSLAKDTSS
Sequence of Cannabinoid receptor 1 (P21554 whole entry): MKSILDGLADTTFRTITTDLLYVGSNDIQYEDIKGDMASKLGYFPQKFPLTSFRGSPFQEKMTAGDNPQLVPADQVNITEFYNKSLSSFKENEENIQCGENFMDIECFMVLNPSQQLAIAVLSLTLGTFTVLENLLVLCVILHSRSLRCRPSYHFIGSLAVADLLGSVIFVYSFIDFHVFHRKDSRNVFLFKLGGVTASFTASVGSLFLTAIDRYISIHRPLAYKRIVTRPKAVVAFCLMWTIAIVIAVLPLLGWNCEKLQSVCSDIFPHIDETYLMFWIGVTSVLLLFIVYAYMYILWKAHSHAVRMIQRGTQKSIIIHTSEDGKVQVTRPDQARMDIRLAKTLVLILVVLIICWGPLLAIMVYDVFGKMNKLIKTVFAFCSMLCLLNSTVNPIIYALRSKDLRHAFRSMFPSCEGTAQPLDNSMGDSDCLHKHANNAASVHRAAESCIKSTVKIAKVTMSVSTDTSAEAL
Sequence of D(3) dopamine receptor (P35462 whole entry): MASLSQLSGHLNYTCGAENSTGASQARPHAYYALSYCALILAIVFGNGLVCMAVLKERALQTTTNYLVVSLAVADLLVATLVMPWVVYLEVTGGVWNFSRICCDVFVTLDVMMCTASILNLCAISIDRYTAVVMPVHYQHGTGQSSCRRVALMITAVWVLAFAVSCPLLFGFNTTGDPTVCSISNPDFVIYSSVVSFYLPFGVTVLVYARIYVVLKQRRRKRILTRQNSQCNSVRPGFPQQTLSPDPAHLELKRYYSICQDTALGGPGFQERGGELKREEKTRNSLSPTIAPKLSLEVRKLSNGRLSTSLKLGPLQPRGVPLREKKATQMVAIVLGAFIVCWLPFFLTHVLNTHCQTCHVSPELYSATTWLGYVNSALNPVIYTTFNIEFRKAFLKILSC
Sequence of Motilin receptor (O43193 whole entry): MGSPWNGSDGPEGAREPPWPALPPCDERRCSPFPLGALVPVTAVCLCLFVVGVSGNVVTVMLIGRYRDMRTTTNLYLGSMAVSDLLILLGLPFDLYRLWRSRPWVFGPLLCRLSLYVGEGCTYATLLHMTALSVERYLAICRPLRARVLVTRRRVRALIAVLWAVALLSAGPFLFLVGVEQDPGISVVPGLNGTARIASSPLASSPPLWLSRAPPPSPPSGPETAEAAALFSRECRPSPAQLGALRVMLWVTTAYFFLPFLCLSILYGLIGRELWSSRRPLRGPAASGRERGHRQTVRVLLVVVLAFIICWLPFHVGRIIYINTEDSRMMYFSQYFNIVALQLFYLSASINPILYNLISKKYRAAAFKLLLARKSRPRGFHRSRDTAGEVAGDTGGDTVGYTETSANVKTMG
Sequence of Kappa-type opioid receptor (P41145 whole entry): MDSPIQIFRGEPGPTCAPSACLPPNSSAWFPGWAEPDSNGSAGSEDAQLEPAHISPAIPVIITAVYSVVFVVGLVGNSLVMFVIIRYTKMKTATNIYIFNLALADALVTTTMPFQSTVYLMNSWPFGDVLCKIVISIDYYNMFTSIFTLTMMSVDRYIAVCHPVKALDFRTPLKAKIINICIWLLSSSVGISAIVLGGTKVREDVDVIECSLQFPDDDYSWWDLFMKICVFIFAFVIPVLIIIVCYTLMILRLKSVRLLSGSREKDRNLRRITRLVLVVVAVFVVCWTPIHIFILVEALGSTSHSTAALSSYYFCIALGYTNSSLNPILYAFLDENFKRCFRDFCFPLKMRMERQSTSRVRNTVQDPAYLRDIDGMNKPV
Sequence of Gamma-aminobutyric acid receptor subunit alpha-1 (P62813 whole entry): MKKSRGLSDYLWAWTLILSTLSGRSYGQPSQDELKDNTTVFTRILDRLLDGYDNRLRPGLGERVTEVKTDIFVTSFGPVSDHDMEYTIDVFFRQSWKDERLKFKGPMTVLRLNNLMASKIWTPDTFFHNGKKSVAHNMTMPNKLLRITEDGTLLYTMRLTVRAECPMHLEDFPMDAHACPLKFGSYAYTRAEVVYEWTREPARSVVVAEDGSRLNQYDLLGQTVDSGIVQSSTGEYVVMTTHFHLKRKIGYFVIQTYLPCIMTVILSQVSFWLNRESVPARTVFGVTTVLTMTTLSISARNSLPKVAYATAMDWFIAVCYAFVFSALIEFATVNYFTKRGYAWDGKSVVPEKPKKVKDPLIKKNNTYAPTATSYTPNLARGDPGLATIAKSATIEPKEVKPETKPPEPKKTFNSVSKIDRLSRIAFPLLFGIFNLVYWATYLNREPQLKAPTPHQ
Sequence of Sodium-dependent serotonin transporter (P31645 whole entry): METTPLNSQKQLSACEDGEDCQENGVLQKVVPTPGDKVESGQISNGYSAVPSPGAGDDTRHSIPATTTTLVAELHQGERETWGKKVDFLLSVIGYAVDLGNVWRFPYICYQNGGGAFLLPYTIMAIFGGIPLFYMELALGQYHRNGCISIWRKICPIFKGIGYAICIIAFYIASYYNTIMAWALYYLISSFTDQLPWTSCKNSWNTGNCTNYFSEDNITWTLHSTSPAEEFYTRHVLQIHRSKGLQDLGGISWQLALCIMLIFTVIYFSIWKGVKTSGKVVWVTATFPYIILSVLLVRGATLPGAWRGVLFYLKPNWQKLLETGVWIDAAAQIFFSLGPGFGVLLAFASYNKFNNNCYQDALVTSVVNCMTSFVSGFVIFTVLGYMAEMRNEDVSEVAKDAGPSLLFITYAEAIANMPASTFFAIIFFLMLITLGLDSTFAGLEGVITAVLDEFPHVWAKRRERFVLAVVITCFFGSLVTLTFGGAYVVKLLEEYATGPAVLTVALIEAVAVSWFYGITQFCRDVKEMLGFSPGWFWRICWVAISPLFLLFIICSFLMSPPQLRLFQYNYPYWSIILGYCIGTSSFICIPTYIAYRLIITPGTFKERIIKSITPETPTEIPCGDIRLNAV

Row | Structure (SMILES) | AC50 (Adenosine receptor A2a) [µM] | AC50 [1] [µM] | AC50 [2] [µM] | AC50 (Vasopressin V2 receptor) [µM] | AC50 (B2 bradykinin receptor) [µM] | AC50 (Estrogen receptor) [µM] | AC50 [3] [µM] | AC50 [4] [µM] | AC50 (Motilin receptor) [µM] | AC50 [5] [µM] | AC50 [6] [µM] | AC50 (Mu-type opioid receptor) [µM] | AC50 (D(3) dopamine receptor) [µM] | AC50 [7] [µM] | AC50 (Cannabinoid receptor 1) [µM]
1 | OCC(O)COc1ccc(Cl)cc1 (centres undefined) | > 10 | > 10 | > 10 | > 10 | > 10 | > 10 | > 10 | > 10 | > 10 | > 10 | > 10 | > 30 | > 30 | – | –
2 | O=C(O[C@H]1C[N+]2(CCCOc3ccccc3)CCC1CC2)C(O)(c1cccs1)c1cccs1 [ACLIDINIUM BROMIDE] | > 30 | – | > 10 | > 30 | > 30 | > 30 | > 10 | – | > 10 | 13.9 | > 10 | > 30 | > 10 | > 30 | –
3 | COc1ccc(-n2nc(C(N)=O)c3c2C(=O)N(c2ccc(N4CCCCC4=O)cc2)CC3)cc1 [APIXABAN] | > 30 | > 30 | > 30 | > 30 | > 30 | – | > 30 | > 30 | > 30 | > 30 | > 30 | > 30 | > 30 | > 30 | > 30
4 | C[C@@H](Cc1ccccc1)N(C)Cc1ccccc1 [BENZPHETAMINE] | > 10 | > 10 | 2.8 | > 10 | > 10 | > 10 | > 10 | > 10 | > 10 | 1.97 | 0.075 | > 30 | > 30 | – | > 30
5 | CN(C)CCOC(=O)C(c1ccccc1)C1(O)CCCC1 (centres undefined) [CYCLOPENTOLATE] | > 10 | > 10 | > 10 | > 10 | > 10 | > 10 | > 10 | > 10 | > 10 | > 10 | > 30 | > 30 | > 30 | – | –
6 | CCCCCCOC(=O)NC(=N)c1ccc(NCc2nc3cc(C(=O)N(CCC(=O)OCC)c4ccccn4)ccc3n2C)cc1 [DABIGATRAN ETEXILATE] | > 30 | > 30 | > 30 | > 30 | > 30 | – | > 30 | > 30 | > 30 | > 30 | > 30 | > 30 | > 30 | > 30 | > 30
7 | CN1C(=O)CN=C(c2ccccc2F)c2cc([N+](=O)[O-])ccc21 [FLUNITRAZEPAM] | > 30 | > 10 | > 10 | > 30 | > 30 | > 30 | 0.0055 | > 10 | > 10 | 6.39 | > 10 | > 10 | > 30 | – | > 30
8 | CCC(NC(C)C)C(O)c1ccc(O)c(O)c1 (centres undefined) [ISOETHARINE] | > 30 | > 30 | > 30 | > 30 | > 30 | – | > 30 | > 30 | > 30 | 8.95 | > 30 | > 30 | > 30 | > 30 | –
9 | O=C(C[S+]([O-])Cc1ccco1)NC/C=C\COc1cc(CN2CCCCC2)ccn1 (centres undefined) [LAFUTIDINE] | > 10 | > 10 | > 10 | > 10 | > 10 | > 10 | > 10 | > 10 | > 10 | > 10 | > 10 | > 30 | > 30 | – | > 30
10 | CCC1(CC)C(=O)NC(=O)N(C)C1=O [METHARBITAL] | > 10 | > 10 | > 10 | > 10 | > 10 | > 10 | > 10 | > 10 | > 10 | > 10 | > 10 | > 30 | > 30 | – | –
11 | CCOC(=O)O[C@]1(C(=O)COC(=O)CC)CC[C@H]2[C@@H]3CCC4=CC(=O)C=C[C@]4(C)[C@H]3[C@@H](O)C[C@@]21C [PREDNICARBATE] | > 10 | > 10 | > 10 | > 10 | > 10 | > 30 | > 10 | > 10 | > 10 | > 10 | > 10 | > 30 | > 30 | – | –
12 | CCC(=O)[C@@]1(C)[C@H](C)C[C@H]2[C@@H]3CCC4=CC(=O)C=C[C@]4(C)[C@H]3[C@@H](O)C[C@@]21C [RIMEXOLONE] | > 10 | > 10 | > 10 | > 10 | > 10 | > 30 | > 10 | > 10 | > 10 | > 10 | > 10 | > 30 | > 30 | – | –
13 | CC(C(=O)O)c1ccc(C(=O)c2ccccc2)s1 (centres undefined) [TIAPROFENIC ACID] | > 10 | > 10 | > 10 | > 10 | > 10 | > 10 | > 30 | > 10 | > 10 | > 10 | > 10 | > 30 | 8.6 | – | > 30
